# How the values were obtained:
# MTAP^-/- HCT-116 cells = assay: Cell proliferation (MTS), MTAP-/- HCT-116; assay type: cell-based, human; settings: for Selectivity: HCT116 WT IC50 relative to HCT116 MTAP-/- IC50; for IC50: Homo sapiens, 240 h, MTAP-/- HCT-116, 10 days with compound, MTS reading, read-out: IC50 HCT116 MTAP-/-
# How it was run: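 MTAP-/- (CRISPR/Cas9 biallelic knockout) or wild-type HCT-116 cells seeded at 100 cells/well, treated next day with 8-point 3-fold dilutions (top 20 µM) for 10 days at 37 °C, 5% CO2. Viability read by MTS; IC50 from four-parameter logistic fit of inhibition rate vs log concentration.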
# PK experiment in mice = settings: female, BALB/c, mouse, plasma, po, 10 mg/kg
# wild-type HCT-116 cells = assay: Cell proliferation (MTS), wild-type HCT-116; assay type: cell-based; settings: Homo sapiens, 240 h; wild-type HCT-116, 10 days with compound, MTS reading; read-out: IC50 HCT116 WT
# How it was run: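 Wild-type HCT-116 cells were seeded at 100 cells/well in McCoy's 5A/10% FBS. From day 1 they were treated with compound in 3-fold dilutions (initial 20 µM, 8 points) for 10 days at 37° C. Proliferation was read by MTS on day 11, and IC50 was obtained from a four-parameter logistic fit.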
# hERG = target: T1, hERG (Homo sapiens, UniProt Q12809); assay: hERG test (Predictor hERG Fluorescence Polarization Assay Kit); assay type: binding; settings: for inhibition at 3.5 h, 10 µM: human, probe Predictor hERG Tracer Red, 10 µM test substance, three duplicate wells; for IC50: only 10 µM tested
# T1 construct: purchased ThermoFisher Scientific PV5365
# Procedure: Predictor™ hERG Fluorescence Polarization Assay Kit (ThermoFisher Scientific, PV5365).
# The procedures in the kit instructions were followed: 4× Predictor™ hERG Tracer Red, 4× E-4031, and 4× test substance solutions (final assay concentration: 10 µM) were prepared in advance. 5 µL Predictor™ hERG FP Assay Buffer and 5 µL Predictor™ hERG Membrane were added sequentially to the Assay Blank group in a 384-well plate. 2.5 µL Predictor™ hERG FP Assay Buffer, 2.5 µL of 4× E-4031, and 2.5 µL of 4× test substance were added to the negative control group, the positive control group, and the test substance group, respectively, and then 5 µL Predictor™ hERG Membrane and 2.5 µL of 4× Predictor™ hERG Tracer Red were sequentially added. The total volume of the experimental system was 10 µL, and three duplicate wells were set for each group. After loading, the plate was gently tapped to mix well and incubated at room temperature (25 °C) in the dark for 3.5 h. After the incubation was completed, the fluorescence polarization value mP was measured on a microplate reader, and G Factor was 2.14.
# The inhibition rate of the test substance was calculated using the following formula: [formula]
# T1 sequence (Q12809 whole entry): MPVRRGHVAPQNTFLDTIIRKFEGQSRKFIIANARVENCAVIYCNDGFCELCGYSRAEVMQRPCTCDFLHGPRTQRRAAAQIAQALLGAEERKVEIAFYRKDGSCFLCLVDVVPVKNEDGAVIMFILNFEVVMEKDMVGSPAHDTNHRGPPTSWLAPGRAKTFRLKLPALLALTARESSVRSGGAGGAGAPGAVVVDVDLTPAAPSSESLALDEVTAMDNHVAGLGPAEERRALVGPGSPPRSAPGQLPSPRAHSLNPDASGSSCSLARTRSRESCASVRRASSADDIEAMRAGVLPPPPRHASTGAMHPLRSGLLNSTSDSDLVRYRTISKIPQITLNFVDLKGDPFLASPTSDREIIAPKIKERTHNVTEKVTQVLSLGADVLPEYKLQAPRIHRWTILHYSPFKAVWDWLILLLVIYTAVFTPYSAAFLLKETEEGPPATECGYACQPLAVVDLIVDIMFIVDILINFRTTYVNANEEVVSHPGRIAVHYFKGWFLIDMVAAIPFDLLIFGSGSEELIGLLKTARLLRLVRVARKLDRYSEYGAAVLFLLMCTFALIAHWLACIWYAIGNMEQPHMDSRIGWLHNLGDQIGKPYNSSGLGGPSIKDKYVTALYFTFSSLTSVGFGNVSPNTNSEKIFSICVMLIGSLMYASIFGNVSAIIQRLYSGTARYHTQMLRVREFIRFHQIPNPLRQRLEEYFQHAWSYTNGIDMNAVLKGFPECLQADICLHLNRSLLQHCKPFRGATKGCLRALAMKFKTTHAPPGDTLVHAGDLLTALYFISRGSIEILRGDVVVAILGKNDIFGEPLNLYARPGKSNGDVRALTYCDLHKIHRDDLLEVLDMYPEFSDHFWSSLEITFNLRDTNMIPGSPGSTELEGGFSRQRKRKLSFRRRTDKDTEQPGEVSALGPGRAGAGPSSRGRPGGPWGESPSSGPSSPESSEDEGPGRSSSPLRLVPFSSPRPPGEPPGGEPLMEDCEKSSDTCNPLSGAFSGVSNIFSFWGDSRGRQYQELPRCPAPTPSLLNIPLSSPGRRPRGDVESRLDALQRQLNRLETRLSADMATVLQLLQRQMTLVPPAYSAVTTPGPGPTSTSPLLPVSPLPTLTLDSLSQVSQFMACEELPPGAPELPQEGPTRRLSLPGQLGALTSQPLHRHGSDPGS
SMILES,Selectivity (MTAP^-/- HCT-116 cells),IC50 (MTAP^-/- HCT-116 cells),AUC(0-t) (PK experiment in mice),Cmax (PK experiment in mice),IC50 (wild-type HCT-116 cells),"inhibition at 3.5 h, 10 µM (hERG)",IC50 (hERG)
"CN(C(=O)c1cc2c(cc1F)nc(N)c1cnn(C)c12)[C@@H]1COc2cc(C#Cc3cnn(C4CC4)c3)ccc21 [Compound 12A, (S)-4-amino-N-(6-((1-cyclopropyl-1H-pyrazol-4-yl)ethynyl)-2,3-dihydrobenzofuran-3-yl)-7-fluoro-N,1-dimethyl-1H-pyrazolo[4,3-c]quinoline-8-carboxamide]",115,3.7 nM,26900 ± 7450 ng·h/mL,2670 ± 421 ng/mL,426 nM,22.4%,> 10 µM
"CN(C(=O)c1ccc2nc(N)c3cnn(C)c3c2c1)C1COc2cc(C#Cc3cnn(C(F)F)c3)ccc21 (stereo not drawn) [Compound 30, 4-amino-N-(6-((1-(difluoromethyl)-1H-pyrazol-4-yl)ethynyl)-2,3-dihydrobenzofuran-3-yl)-N,1-dimethyl-1H-pyrazolo[4,3-c]quinoline-8-carboxamide]",201,8.7 nM,12600 ± 1360 ng·h/mL,984 ± 123 ng/mL,1750 nM,–,–
"CN(C(=O)c1cc2c3c(c(N)nc2cc1F)COC3)C1COc2cc(C#Cc3cnn(C)c3)ccc21 (stereo not drawn) [Compound 39, 4-amino-7-fluoro-N-methyl-N-(6-((1-methyl-1H-pyrazol-4-yl)ethynyl)-2,3-dihydrobenzofuran-3-yl)-1,3-dihydrofuro[3,4-c]quinoline-8-carboxamide]",148,20 nM,20900 ± 8400 ng·h/mL,2670 ± 180 ng/mL,2960 nM,23.8%,> 10 µM
"CN(C(=O)c1cc2c3c(c(N)nc2cc1Cl)COC3)C1COc2cc(C#Cc3cnn(C)c3)ccc21 (stereo not drawn) [Compound 40, 4-amino-7-chloro-N-methyl-N-(6-((1-methyl-1H-pyrazol-4-yl)ethynyl)-2,3-dihydrobenzofuran-3-yl)-1,3-dihydrofuro[3,4-c]quinoline-8-carboxamide]",252,5.8 nM,–,–,1460 nM,22%,> 10 µM
"Cc1ncccc1C#Cc1ccc2c(c1)OCC2N(C)C(=O)c1cc2c(cc1F)nc(N)c1cnn(C)c12 (stereo not drawn) [Compound 45, 4-amino-7-fluoro-N,1-dimethyl-N-(6-((2-methylpyridin-3-yl)ethynyl)-2,3-dihydrobenzofuran-3-yl)-1H-pyrazolo[4,3-c]quinoline-8-carboxamide]",111,5.9 nM,–,–,654 nM,21%,> 10 µM
"CN1CCn2c(C#Cc3ccc4c(c3)OC[C@H]4N(C)C(=O)c3cc4c(cc3F)nc(N)c3cnn(C)c34)cnc2C1 [Compound 46A, (S)-4-amino-7-fluoro-N,1-dimethyl-N-(6-((7-methyl-5,6,7,8-tetrahydroimidazo[1,2-a]pyrazin-3-yl)ethynyl)-2,3-dihydrobenzofuran-3-yl)-1H-pyrazolo[4,3-c]quinoline-8-carboxamide]",144,1.1 nM,–,–,158 nM,43.9 ± 18.8%,> 10 µM
"Cc1c(C#Cc2ccc3c(c2)OC[C@H]3N(C)C(=O)c2cc3c4c(c(N)nc3cc2Cl)COC4)cnn1C [Compound 52A, (S)-4-amino-7-chloro-N-(6-((1,5-dimethyl-1H-pyrazol-4-yl)ethynyl)-2,3-dihydrobenzofuran-3-yl)-N-methyl-1,3-dihydrofuro[3,4-c]quinoline-8-carboxamide]",152,3.2 nM,14200 ± 2430 ng·h/mL,1500 ± 313 ng/mL,487 nM,10.4 ± 49.1%,> 10 µM
"CN(C(=O)c1cc2c3c(c(N)nc2cc1Cl)COC3)[C@@H]1COc2cc(C#Cc3cccnc3F)ccc21 [Compound 61A, (S)-4-amino-7-chloro-N-(6-((2-fluoropyridin-3-yl)ethynyl)-2,3-dihydrobenzofuran-3-yl)-N-methyl-1,3-dihydrofuro[3,4-c]quinoline-8-carboxamide]",91,7 nM,22200 ± 2710 ng·h/mL,2080 ± 299 ng/mL,640 nM,–,–
"CN(C(=O)c1cc2c3c(c(N)nc2cc1Cl)COC3)[C@@H]1COc2cc(C#Cc3cnc4n3CCCC4)ccc21 [Compound 74A, (S)-4-amino-7-chloro-N-methyl-N-(6-((5,6,7,8-tetrahydroimidazo[1,2-a]pyridin-3-yl)ethynyl)-2,3-dihydrobenzofuran-3-yl)-1,3-dihydrofuro [3,4-c] quinoline-8-carb oxamide]",175,2.7 nM,14500 ± 1760 ng·h/mL,2810 ± 780 ng/mL,472 nM,–,–
"CN(C(=O)c1cc2c3c(c(N)nc2cc1Cl)COC3)[C@@H]1COc2cc(C#Cc3cnc4n3CCC4)ccc21 [Compound 75A, (S)-4-amino-7-chloro-N-(6-((6,7-dihydro-5H-pyrrolo[1,2-a]imidazol-3-yl)ethynyl) -2,3-dihydrobenzofuran-3-yl)-N-methyl-1,3-dihydrofuro[3,4-c]quinoline-8-carbo xamide]",106,4 nM,27000 ± 4260 ng·h/mL,5010 ± 846 ng/mL,424 nM,–,–
"CN(C(=O)c1cc2c(cc1F)nc(N)c1cnn(C)c12)[C@@H]1COc2cc(C#Cc3cnc4n3CCC4)ccc21 [Compound 84A, (S)-4-amino-N-(6-((6,7-dihydro-5H-pyrrolo[1,2-a]imidazol-3-yl)ethynyl)-2,3-dihydrobenzofuran-3-yl)-7-fluoro-N,1-dimethyl-1H-pyrazolo[4,3-c]quinoline-8-carbo xamide]",55,2.6 nM,–,–,143 nM,–,–
"CN(C(=O)c1cc2c(cc1F)nc(N)c1cnn(C)c12)C1COCc2cc(C#Cc3cnn(C4CC4)c3)ccc21 (stereo not drawn) [Compound 85, 4-amino-N-(7-((1-cyclopropyl-1H-pyrazol-4-yl)ethynyl)isochroman-4-yl)-7-fluoro -N,1-dimethyl-1H-pyrazolo[4,3-c]quinoline-8-carboxamide]",55,3 nM,–,–,165 nM,–,–
"CN(C(=O)c1cc2c3c(c(N)nc2cc1Cl)COC3)C1COCc2cc(C#Cc3cnn(C4CC4)c3)ccc21 (stereo not drawn) [Compound 87, 4-amino-7-chloro-N-(7-((1-cyclopropyl-1H-pyrazol-4-yl)ethynyl)isochroman-4-yl) -N-methyl-1,3-dihydrofuro[3,4-c]quinoline-8-carboxamide]",56,9 nM,–,–,504 nM,–,–
"CN(C(=O)c1cc2c3c(c(N)nc2cc1Cl)COC3)[C@@H]1COc2cc(C#Cc3cnn4c3CCC4)ccc21 [Compound 88A, (S)-4-amino-7-chloro-N-(6-((5,6-dihydro-4H-pyrrolo[1,2-b]pyrazol-3-yl)ethynyl)-2,3-dihydrobenzofuran-3-yl)-N-methyl-1,3-dihydrofuro[3,4-c]quinoline-8-carbox amide]",173,4.5 nM,–,–,777 nM,–,–
"CN(C(=O)c1cc2c(cc1F)nc(N)c1cnn(C)c12)[C@@H]1COc2cc(C#Cc3cnn(C4CCC4)c3)ccc21 [Compound 89A, (S)-4-amino-N-(6-((1-cyclobutyl-1H-pyrazol-4-yl)ethynyl)-2,3-dihydrobenzofuran-3-yl)-7-fluoro-N,1-dimethyl-1H-pyrazolo [4,3-c] quinoline-8-carboxamide]",88,3 nM,–,–,263 nM,–,–
"CN(C(=O)c1cc2c3c(c(N)nc2cc1Cl)COC3)[C@@H]1COc2cc(C#Cc3cnn(C4CCC4)c3)ccc21 [Compound 90A, (S)-4-amino-7-chloro-N-(6-((1-cyclobutyl-1H-pyrazol-4-yl)ethynyl)-2,3-dihydrobenzofuran-3-yl)-N-methyl-1,3-dihydrofuro[3,4-c]quinoline-8-carboxamide]",98,12 nM,–,–,1180 nM,–,–
"CN(C(=O)c1ccc2nc(N)c3cnn(C)c3c2c1)C1COc2cc(C3CC3)ccc21 (stereo not drawn) [Reference Example 3, reference compound]",–,–,5130 ± 2920 ng·h/mL,741 ± 601 ng/mL,–,–,–
"CN(C(=O)c1cc2c3c(c(N)nc2cc1Cl)COC3)[C@@H]1COc2cc(Br)ccc21 [Reference Example 4, reference compound]",–,–,3270 ± 588 ng·h/mL,649 ± 45 ng/mL,–,–,–
